Here are results for twelve molecules from patent US5736376A, “Recombinant endothelin converting enzyme-2 and its use in ECE inhibitor screening” (Board of Regents, The University of Texas System, priority 1995, dated 1998).

“Also recorded” adds a separate entry of the source. Where no end group is shown, it is not given here.

What is called IC50 is the point on the concentration scale where inhibition reaches its midpoint. Higher therefore signals lower potency. As a reminder, the Km is the substrate concentration at which the rate is half of its maximum.

In data set [1] the target is T1, ECE-2 (Bos taurus, UniProt P0DPE2).
T1 construct: solubilized crude membranes or live cells
T1 sequence (P0DPE2 97-883): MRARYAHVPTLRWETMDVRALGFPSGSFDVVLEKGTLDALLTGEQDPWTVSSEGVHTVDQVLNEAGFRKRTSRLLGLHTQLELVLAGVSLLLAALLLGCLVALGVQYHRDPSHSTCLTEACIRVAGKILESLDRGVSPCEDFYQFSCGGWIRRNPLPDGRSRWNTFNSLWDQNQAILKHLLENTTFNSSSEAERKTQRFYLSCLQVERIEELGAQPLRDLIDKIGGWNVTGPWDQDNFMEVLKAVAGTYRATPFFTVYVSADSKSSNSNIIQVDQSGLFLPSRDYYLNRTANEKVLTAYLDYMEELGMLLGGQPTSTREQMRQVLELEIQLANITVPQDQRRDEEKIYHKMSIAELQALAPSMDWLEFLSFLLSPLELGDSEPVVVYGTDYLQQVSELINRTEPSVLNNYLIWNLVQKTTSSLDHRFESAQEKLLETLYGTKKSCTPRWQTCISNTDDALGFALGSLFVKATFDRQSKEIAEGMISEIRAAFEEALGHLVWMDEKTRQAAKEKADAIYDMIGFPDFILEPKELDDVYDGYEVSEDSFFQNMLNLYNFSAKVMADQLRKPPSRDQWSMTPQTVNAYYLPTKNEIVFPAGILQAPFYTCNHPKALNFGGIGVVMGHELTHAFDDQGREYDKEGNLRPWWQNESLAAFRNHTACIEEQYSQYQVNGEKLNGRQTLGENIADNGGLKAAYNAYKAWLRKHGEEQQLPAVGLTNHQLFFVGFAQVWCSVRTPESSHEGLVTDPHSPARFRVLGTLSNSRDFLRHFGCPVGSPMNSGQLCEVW
As to the kind of experiment: Double-transfection live cell assay: mature ET-1 secretion by CHO/ECE-2 cells transfected with preproET-1 cDNA. The data set is classed as cell-based, bovine.
Procedure: Production of mature ET-1 by CHO/ECE-2 cells transiently transfected with preproET-1 cDNA: Cleavage of endogenously produced big ET-1. Doubly transfected cells were cultured for 12 h in the absence or presence of the designated concentrations of ECE inhibitors, and mature ET-1 in the conditioned medium was determined. Negative control studies with parental CHO cells are shown by dashed lines.
CHO/ECE-2 cells and untransfected CHO cells were transiently transfected in parallel with a preproET-1 construct, and mature ET-1 secreted from these cells into the medium was determined by EIA.
CHO-K1 cells were cultured as described (Xu et al., 1994). Since many batches of tissue culture-grade trypsin preparations contained high levels of metalloprotease contaminants with an ECE-like activity, a highly purified crystallized preparation of trypsin (Sigma, Catalog No. T7418) was dissolved in phosphate-buffered saline at 0.013% (w/v) and used for all trypsinization procedures. […] Twelve hours after the transient transfection, cells were refed with fresh medium with or without ECE inhibitors. The medium was conditioned for an additional 12 h and directly subjected to enzyme immunoassay (EIA) for mature ET-1 (Suzuki et al., 1989).

The target in data set [2] is T1, ECE-2. As to the kind of experiment: Coculture of CHO/ECE-2 and CHO/preproET-1 cells: cleavage of exogenously supplied big ET-1. Particulars: up to 100 μM. The data set is classed as cell-based, bovine.
Procedure: (§1) Production of mature ET-1 by CHO/ECE-1-CHO/preproET-1 and CHO/ECE-2-CHO/preproET-1 cocultures: Cleavage of exogenously supplied big ET-1. […] Negative control experiments were performed by coculturing parental CHO cells with CHO/preproET-1 cells. Open circles, CHO/ET-1+CHO/ECE-1 (Phos); closed circles, CHO/ET-1+CHO/ECE-1 (FR); open squares, CHO/ET-1+CHO/ECE-2 (Phos); closed squares, CHO/ET-1+CHO/ECE-2 (FR); open triangles, CHO/ET-1+CHO-K1 (Phos).
(§2) This was tested by coculturing the stable transfectant CHO/preproET-1 cells with either CHO/ECE-1 or CHO/ECE-2 cells, and determining the amount of mature ET-1 in the medium.
Data set [3] deals with T1, ECE-2. The data set can be described thus: Protease inhibitor assay of ECE-2, solubilized CHO/ECE-2 membranes, big ET-1 conversion, pH 5.5. Format: biochemical, bovine. The following applies: for inhibition of ECE-2: in vitro sensitivity to inhibitors; for Percent of control ECE-2 activity remaining with inhibitor: Inhibitor 100 μM, solubilized CHO/ECE-2 membranes, control 100.
Procedure: Solubilized crude membranes were prepared in parallel from CHO/ECE-2 and CHO/ECE-1 cells as described (Xu et al., 1994). For protease inhibitor studies, membranes were prepared without protease inhibitors. Standard reaction mixtures for the ECE-2 assay (50 μl) contained 0.1M 2-[N-morpholino]ethanesulfonic acid (MES) buffer (pH 5.5), 0.5M NaCl, 0.1 μM human big ET-1 and an enzyme fraction. […] For the inhibitor studies, the reactions were preincubated at 37° C. with protease inhibitor or vehicle for 15 min. Reactions were started by the addition of substrate, and incubated at 37° C. for 30 min in siliconized 0.5-ml microcentrifuge tubes. […] The mixture was then directly assayed for mature ET-1 as described (Suzuki et al., 1989). Duplicate assay wells were used for each enzyme reaction.

The target in data set [4] is T2, ECE-1 (Bos taurus, UniProt P42891).
T2 construct: made in house
T2 sequence (P42891 1-754): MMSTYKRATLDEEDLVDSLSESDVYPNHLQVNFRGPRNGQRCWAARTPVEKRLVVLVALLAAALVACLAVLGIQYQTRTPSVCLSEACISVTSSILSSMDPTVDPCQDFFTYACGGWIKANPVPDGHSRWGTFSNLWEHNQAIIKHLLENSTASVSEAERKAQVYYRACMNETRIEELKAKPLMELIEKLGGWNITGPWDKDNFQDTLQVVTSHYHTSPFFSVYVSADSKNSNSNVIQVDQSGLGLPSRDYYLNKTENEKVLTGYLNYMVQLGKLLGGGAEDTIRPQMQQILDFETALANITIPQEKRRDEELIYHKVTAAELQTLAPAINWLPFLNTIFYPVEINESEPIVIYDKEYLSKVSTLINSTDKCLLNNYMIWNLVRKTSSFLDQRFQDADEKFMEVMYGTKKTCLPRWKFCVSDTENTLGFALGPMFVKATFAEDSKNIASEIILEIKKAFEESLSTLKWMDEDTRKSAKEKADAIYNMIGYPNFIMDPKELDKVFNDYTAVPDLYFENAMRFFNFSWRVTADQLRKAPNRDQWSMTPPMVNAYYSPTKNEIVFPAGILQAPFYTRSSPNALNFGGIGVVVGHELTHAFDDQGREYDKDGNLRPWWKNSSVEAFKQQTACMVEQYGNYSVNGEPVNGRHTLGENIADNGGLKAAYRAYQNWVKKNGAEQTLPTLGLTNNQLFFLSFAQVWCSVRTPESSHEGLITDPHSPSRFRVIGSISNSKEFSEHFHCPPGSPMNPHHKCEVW
The data set can be described thus: Protease inhibitor assay of ECE-1, solubilized CHO/ECE-1 membranes, big ET-1 conversion, pH 6.8. Format: biochemical, bovine. The following applies: for inhibition of ECE-1: sensitivity to protease inhibitors, Table 2; for Percent ECE-1 activity remaining with inhibitor (of control): Inhibitor 100 μM, solubilized CHO/ECE-1 membranes, control 100.
Procedure: Solubilized crude membranes were prepared in parallel from CHO/ECE-2 and CHO/ECE-1 cells as described (Xu et al., 1994). For protease inhibitor studies, membranes were prepared without protease inhibitors. Standard reaction mixtures for the ECE-2 assay (50 μl) contained 0.1M 2-[N-morpholino]ethanesulfonic acid (MES) buffer (pH 5.5), 0.5M NaCl, 0.1 μM human big ET-1 and an enzyme fraction. ECE-1 assay reactions contained 0.1M phosphate buffer (pH 6.8) instead of the MES buffer. For the pH profiling and isopeptide selectivity studies, the buffer solution (0.1M) or the substrate (0.1 μM) was substituted as designated. For the inhibitor studies, the reactions were preincubated at 37° C. with protease inhibitor or vehicle for 15 min. Reactions were started by the addition of substrate, and incubated at 37° C. for 30 min in siliconized 0.5-ml microcentrifuge tubes. […] The mixture was then directly assayed for mature ET-1 as described (Suzuki et al., 1989). Duplicate assay wells were used for each enzyme reaction. […] Protein concentrations were determined by the Bradford method (Bio-Rad) using IgG as standard.

The target in data set [5] is T2, ECE-1. The data set can be described thus: Coculture of CHO/ECE-1 and CHO/preproET-1 cells: cleavage of exogenously supplied big ET-1. Format: cell-based, bovine.
Procedure: as §1, §2
Data set [6] can be described thus: Stability of big and mature endothelin isopeptides with crude membrane proteins, ECE-2 assay conditions (pH 5.6). The data set is classed as physicochemical.
For data set [7] the following is noted: cartilage; literature; cited from earlier work.
The target in data set [8] is T2, ECE-1. The data set can be described thus: Substrate kinetics and isopeptide substrate selectivity of ECE-1. The following applies: big ET-1 0.01-10 μM; 20 μg crude membrane proteins, 30 min; read-out: apparent Km of ECE-1. The data set is classed as biochemical, bovine.
Procedure: Solubilized crude membranes were prepared in parallel from CHO/ECE-2 and CHO/ECE-1 cells as described (Xu et al., 1994). For protease inhibitor studies, membranes were prepared without protease inhibitors. Standard reaction mixtures for the ECE-2 assay (50 μl) contained 0.1M 2-[N-morpholino]ethanesulfonic acid (MES) buffer (pH 5.5), 0.5M NaCl, 0.1 μM human big ET-1 and an enzyme fraction. ECE-1 assay reactions contained 0.1M phosphate buffer (pH 6.8) instead of the MES buffer. For the pH profiling and isopeptide selectivity studies, the buffer solution (0.1M) or the substrate (0.1 μM) was substituted as designated. For the inhibitor studies, the reactions were preincubated at 37° C. with protease inhibitor or vehicle for 15 min. Reactions were started by the addition of substrate, and incubated at 37° C. for 30 min in siliconized 0.5-ml microcentrifuge tubes. […] The mixture was then directly assayed for mature ET-1 as described (Suzuki et al., 1989). Duplicate assay wells were used for each enzyme reaction. For big ET-2 and big ET-3 conversion assays, mature ET-1 EIA (which fully cross-reacts with mature ET-2) and mature ET-3 EIA were used with human ET-2 and ET-3 as standards, respectively (Matsumoto et al., 1989). Protein concentrations were determined by the Bradford method (Bio-Rad) using IgG as standard.
Data set [9] addresses T1, ECE-2. As to the kind of experiment: Substrate kinetics and isopeptide substrate selectivity of ECE-2. The data set is classed as biochemical, bovine.
Procedure: Isopeptide substrate selectivity of ECE-2. Substrates are: closed circles, big ET-1 (1-38); closed squares, big ET-2 (1-38); and closed triangles, big ET-3 (1-41 Amide). Activity is reported as conversion (fmol/30 min) vs μg of membrane protein.
Solubilized crude membranes were prepared in parallel from CHO/ECE-2 and CHO/ECE-1 cells as described (Xu et al., 1994). […] Standard reaction mixtures for the ECE-2 assay (50 μl) contained 0.1M 2-[N-morpholino]ethanesulfonic acid (MES) buffer (pH 5.5), 0.5M NaCl, 0.1 μM human big ET-1 and an enzyme fraction. […] For the pH profiling and isopeptide selectivity studies, the buffer solution (0.1M) or the substrate (0.1 μM) was substituted as designated. […] Reactions were started by the addition of substrate, and incubated at 37° C. for 30 min in siliconized 0.5-ml microcentrifuge tubes. […] The mixture was then directly assayed for mature ET-1 as described (Suzuki et al., 1989). Duplicate assay wells were used for each enzyme reaction. For big ET-2 and big ET-3 conversion assays, mature ET-1 EIA (which fully cross-reacts with mature ET-2) and mature ET-3 EIA were used with human ET-2 and ET-3 as standards, respectively (Matsumoto et al., 1989). Protein concentrations were determined by the Bradford method (Bio-Rad) using IgG as standard.
Data set [10] deals with big ET-1. Particulars: cited from earlier work.
Data set [11] deals with big ET-1. As to the kind of experiment: pH profile of ECE activity. Format: biochemical, human. The procedure: FIG. 1B. pH profile of ECE-2. […] Buffers are: open squares, acetate; closed squares, MES; open circles, phosphate; closed circles, Tris; open triangles, glycine.
FIG. 1B is a pH profile of ECE-2. Optimal activity of ECE-2 is at pH 5.5 in contrast to the previously discovered ECE-1, which has optimal activity at pH 6.8. […] In all subsequent studies, ECE-2 assays were performed at pH 5.5. […] A majority of the ECE-2 activity in the CHO/ECE-2 cell homogenates was found in the membrane fraction. No significant ECE-2 activity was detected in the culture supernatants from CHO/ECE-2 cells.
Solubilized crude membranes were prepared in parallel from CHO/ECE-2 and CHO/ECE-1 cells as described (Xu et al., 1994). For protease inhibitor studies, membranes were prepared without protease inhibitors. Standard reaction mixtures for the ECE-2 assay (50 μl) contained 0.1M 2-[N-morpholino]ethanesulfonic acid (MES) buffer (pH 5.5), 0.5M NaCl, 0.1 μM human big ET-1 and an enzyme fraction. ECE-1 assay reactions contained 0.1M phosphate buffer (pH 6.8) instead of the MES buffer. For the pH profiling and isopeptide selectivity studies, the buffer solution (0.1M) or the substrate (0.1 μM) was substituted as designated. […] Protein concentrations were determined by the Bradford method (Bio-Rad) using IgG as standard.

Regarding `COc1c2c(c(O)c3c1C(O)Cc1cc(CC(C)O)c(C(=O)O)c(O)c1-3)C(=O)c1cccc(O)c1C2=O` (stereo not drawn) [FR901533, 1,6,9,14-tetrahydroxy-3-(2-hydroxypropyl)-7-methoxy-8,13-dioxo-5,6,8,13-tetrahydro-benzo[α]naphthacene-2-carboxylate .cndot. Na], in data set [1] (added to medium at up to 1 mM), the “inhibition of conversion in transfected CHO/ECE-2 cells” value is “did not appreciably inhibit the conversion”. The “inhibition of mature peptide production, CHO/ECE-2 coculture” value in data set [2] was “not inhibited”. Further, the “inhibition of ECE-2” value in data set [3] is reported as “inhibited; also recorded: efficiently inhibits the conversion of big ET-1 by ECE-2 in vitro”. The 50% inhibitory concentration (IC50) in [3] (in vitro, pH 5.5) is 3 µM; in [4] (in vitro, pH 6.8), 2 µM; in [5], about 1 µM. In addition, in data set [4], the “inhibition of ECE-1” value was “inhibited”.

“ET-1: Synthetic human ET-1; 21-amino-acid peptide”: in data set [6], the “rate of degradation among isopeptides” value is listed as “degraded at similar rates”.

In the case of ET-3: Synthetic human ET-3, the “rate of degradation among isopeptides” value in data set [6] is given as “degraded at similar rates”.

In the case of “matrix metalloproteinase-3: matrix metalloprotease in cartilage, matrix metalloproteinase-3 (MMP-3; stromelysin-1)”, the pH optimum in [7] is 5.3-5.5.

As to `O=C(O)CNC(=O)C(CS)Cc1ccccc1` (stereo not shown) [Thiorphan], the “inhibition of ECE-2” value in data set [3] was “not inhibited”. Further, in data set [4], the “inhibition of ECE-1” value was “not inhibited”.

For the molecule `O=S(=O)(O)c1cc[c]([Hg][Cl])cc1` [pCMS, p-chloromercuriphenylsulphonic acid], in data set [3], the “Percent of control ECE-2 activity remaining with inhibitor” value was found to be 345% and the “inhibition of ECE-2” value is listed as “augmented the activity of ECE-2”. The “Percent ECE-1 activity remaining with inhibitor (of control)” value in data set [4] turned out to be 136%.

Turning to “ET-2: Synthetic human ET-2 (CSCSSWLDKECVYFCHLDIIW; ends and bridges not checked; cysteine pairing not given here; UniProt P20800 49-69, looked up)”, in data set [6], the “rate of degradation among isopeptides” value is “degraded at similar rates”.

Turning to `N=C(N)c1ccc(CS(=O)(=O)F)cc1` [APMSF, 4-amidinophenylmethylsulphonyl fluoride], in [3], the “Percent of control ECE-2 activity remaining with inhibitor” value worked out at 93%. The “Percent ECE-1 activity remaining with inhibitor (of control)” value in data set [4] came out at 107%.

`C[C@H](CS)C(=O)N1CCC[C@H]1C(=O)O` [Captopril]: the “inhibition of ECE-2” value in data set [3] is “not inhibited”. In addition, the “inhibition of ECE-1” value in [4] is given as “not inhibited”.

“big ET-1: Synthetic human big ET-1[1-38] (CSCSSLMDKECVYFCHLDIIWVNTPEHVVPYGLGSPRS; ends and bridges not checked; cysteine pairing not given here; UniProt P05305 53-90, looked up)”: the Michaelis constant (Km) in data set [8] lay within 1 to 2 µM; in data set [9] (big ET-1 0.01-10 μM, 20 μg crude membrane proteins, 30 min, read-out: apparent Km of ECE-2) it was 1 to 2 µM. Also, the “relative rate of cleavage by ECE-2” value in data set [9] (20-40 μg membrane proteins, optimal pH) amounted to 100%. Further, in [6], the “rate of degradation among isopeptides” value was “degraded at similar rates”.

B1: ECE-1: type II membrane-bound metalloprotease that processed endogenously produced big ET-1 (protein, UniProt P42892 1-770, looked up)
Endothelin-converting enzyme 1: MRGVWPPPVSALLSALGMSTYKRATLDEEDLVDSLSEGDAYPNGLQVNFHSPRSGQRCWAARTQVEKRLVVLVVLLAAGLVACLAALGIQYQTRSPSVCLSEACVSVTSSILSSMDPTVDPCHDFFSYACGGWIKANPVPDGHSRWGTFSNLWEHNQAIIKHLLENSTASVSEAERKAQVYYRACMNETRIEELRAKPLMELIERLGGWNITGPWAKDNFQDTLQVVTAHYRTSPFFSVYVSADSKNSNSNVIQVDQSGLGLPSRDYYLNKTENEKVLTGYLNYMVQLGKLLGGGDEEAIRPQMQQILDFETALANITIPQEKRRDEELIYHKVTAAELQTLAPAINWLPFLNTIFYPVEINESEPIVVYDKEYLEQISTLINTTDRCLLNNYMIWNLVRKTSSFLDQRFQDADEKFMEVMYGTKKTCLPRWKFCVSDTENNLGFALGPMFVKATFAEDSKSIATEIILEIKKAFEESLSTLKWMDEETRKSAKEKADAIYNMIGYPNFIMDPKELDKVFNDYTAVPDLYFENAMRFFNFSWRVTADQLRKAPNRDQWSMTPPMVNAYYSPTKNEIVFPAGILQAPFYTRSSPKALNFGGIGVVVGHELTHAFDDQGREYDKDGNLRPWWKNSSVEAFKRQTECMVEQYSNYSVNGEPVNGRHTLGENIADNGGLKAAYRAYQNWVKKNGAEHSLPTLGLTNNQLFFLGFAQVWCSVRTPESSHEGLITDPHSPSRFRVIGSLSNSKEFSEHFRCPPGSPMNPPHKCEVW
Consider B1, for which, in data set [10], the “pH optimum of previously discovered ECE-1” value is 6.8.

B2: ECE-2: novel membrane-bound metalloprotease; 787-amino-acid polypeptide, SEQ ID NO:2 (protein)
chain: MRARYAHVPTLRWETMDVRALGFPSGSFDVVLEKGTLDALLTGEQDPWTVSSEGVHTVDQVLNEAGFRKRTSRLLGLHTQLELVLAGVSLLLAALLLGCLVALGVQYHRDPSHSTCLTEACIRVAGKILESLDRGVSPCEDFYQFSCGGWIRRNPLPDGRSRWNNSNSLWDQNQAILKHLLENTTFNSSSEAERKTQRFYLSCLQVERIEELGAHALRDLIDKIGGWNVTGPWDQDNFMEVLKAVAGTYRATPFFTVYVSADSKSSNSNIIQVDQSGLFLPSRDYYLNRTANEKVLTAYLDYMEELGMLLGGQPTSTREQMRQVLELEIQLANITVPQDQRRDEEKIYHKMSIAELQALAPSMDWLEFLSFLLSPLELGDSEPVVVYGTDYLQQVSELINRTEPSVLNNYLIWNLVQKTTSSLDHRFESAQEKLLETLYGTKKSCTPRWQTCISNTDDALGFALGSLFVKATFDRQSKEIAEGMISEIRVAFEEALGHLVWMDEKTRQAAKEKADAIYDMIGFPDFILEPKELDDVYDGYEVSEDSFFQNMLNLYNFSAKVMADQLRKPPSRDQWSMTPQTVNAYYLPTKNEIVFPAGILQAPFYTCNHPQALNFGGIGVVMGHELTHAFDDQGREYDKEGNLRPWWQNESLAAFRNHTACIEEQYSQYQVNGEKLNGRQTLGENIADNGGLKAAYNAYKAWLRKHGEEQQLPAVGLTNHQLFFVGFAQVWCSVRTPESSHEGLVTDPHSPARFRVLGTLSNSRDFLRHFGCPVGSPMNSGQLCEVW
With B2, the “pH of optimal activity” value in [11] (conversion of big ET-1) stood at 5.5. For the same molecule, the “activity at neutral pH (6.8)” value in data set [11] (standard ECE-1 assay) is “virtually inactive”. In addition, in data set [1] (double-transfection assays), the “total endothelin peptides converted to mature ET-1” value is “up to 40%”.
